Reference: ChEMBL document CHEMBL1155894, “Novel analogues of istaroxime, a potent inhibitor of Na+,K+-ATPase: synthesis and structure-activity relationship” (J Med Chem, 2008)
pIC50: −log10 of the molar value.

Assays:
[1] = Inhibition of dog kidney Na+,K+-ATPase by [32P]ATP hydrolysis method; design: species or system Canis lupus familiaris
Cavia porcellus [2] = assay: […] effect in anesthetized guinea pig assessed as drug level inducing maximun increase in dP/dtmax response relative to control; assay type: functional
Cavia porcellus [3] = assay: […] effect in anesthetized guinea pig assessed as increase in dP/dtmax response relative to control; assay type: functional
Cavia porcellus [4] = organism: Cavia porcellus; assay: Toxicity in guinea pig assessed as induction of death; assay type: organism-based; settings: in vivo
Cavia porcellus [5] = organism: Cavia porcellus; assay: Ratio of toxic lethal dose to ED80 for inotropic activity in guinea pig; assay type: functional
Cavia porcellus [6] = assay: […] effect in anesthetized guinea pig assessed as drug level inducing increase in dP/dtmax response; assay type: functional

Row | SMILES | pIC50 [1] | Activity (Cavia porcellus [2]) | Emax (Cavia porcellus [3]) | Activity (Cavia porcellus [4]) | Ratio (Cavia porcellus [5]) | ED80 (Cavia porcellus [6])
1 | C[C@]12CC/C(=N/OCCNC(=N)N)C[C@@H]1C(=O)C[C@@H]1[C@@H]2CC[C@]2(C)C(=O)CC[C@@H]12 | 4.92 | – | – | – | – | –
2 | C[C@]12CC/C(=N/O[C@H]3CCNC3)C[C@@H]1C(=O)C[C@@H]1[C@@H]2CC[C@]2(C)C(=O)CC[C@@H]12 | 6.62 | – | – | – | – | –
3 | C[C@]12CC/C(=N/OCCCCN)C[C@@H]1C(=O)C[C@@H]1[C@@H]2CC[C@]2(C)C(=O)CC[C@@H]12 | 5.74 | – | – | – | – | –
4 | C[C@]12CC/C(=N/O[C@H]3CCNC3)C[C@@H]1[C@@H](O)C[C@@H]1[C@@H]2CC[C@]2(C)C(=O)CC[C@@H]12 | 6.04 | – | – | – | – | –
5 | CNCCCO/N=C1/CC[C@@]2(C)[C@H](C1)C(O)C[C@@H]1[C@@H]2CC[C@]2(C)C(=O)CC[C@@H]12 (some centres not stated) | 6.04 | 8.95 µmol/kg | 77% | Toxic | <17 | –
6 | C[C@]12CCC(=NO[C@@H]3CCNC3)C[C@@H]1C(=O)C[C@@H]1[C@@H]2CC[C@]2(C)C(=O)CC[C@@H]12 | 7.59 | 8.09 µmol/kg | 223% | – | 12 | 2.01 µmol/kg
7 | CC(C)(CN)O/N=C1/CC[C@@]2(C)[C@H](C1)C(=O)C[C@@H]1[C@@H]2CC[C@]2(C)C(=O)CC[C@@H]12 | 7.68 | – | – | – | – | –
8 | CN1CC[C@H](O/N=C2/CC[C@@]3(C)[C@H](C2)C(=O)C[C@@H]2[C@@H]3CC[C@]3(C)C(=O)CC[C@@H]23)C1 | 4.39 | – | – | – | – | –
9 | C[C@]12CC/C(=N/O[C@@H]3CCNC3)C[C@@H]1[C@@H](O)C[C@@H]1[C@@H]2CC[C@]2(C)C(=O)CC[C@@H]12 | 6.66 | 9.62 µmol/kg | 216% | – | 21 | 1.64 µmol/kg
10 | C[C@]12CC/C(=N/O[C@@H]3CCNC3)C[C@@H]1[C@H](O)C[C@@H]1[C@@H]2CC[C@]2(C)C(=O)CC[C@@H]12 | 6.07 | 44.8 µmol/kg | 256% | Toxic | 49.1 | 3.92 µmol/kg
11 | C[C@]12CC/C(=N/OC3CNC3)C[C@@H]1C(=O)C[C@@H]1[C@@H]2CC[C@]2(C)C(=O)CC[C@@H]12 | 7.00 | – | – | – | – | –
12 | CNCCO/N=C1/CC[C@@]2(C)[C@H](C1)C(=O)C[C@@H]1[C@@H]2CC[C@]2(C)C(=O)CC[C@@H]12 | 6.16 | – | – | – | – | –
13 | C[C@]12CC/C(=N\OC[C@H]3CCCN3)C[C@@H]1C(=O)C[C@@H]1[C@@H]2CC[C@]2(C)C(=O)CC[C@@H]12 | 4.64 | – | – | – | – | –
14 | C[C@H]1O[C@@H](O[C@H]2[C@@H](O)C[C@H](O[C@H]3[C@@H](O)C[C@H](O[C@H]4CC[C@@]5(C)[C@H](CC[C@@H]6[C@@H]5C[C@@H](O)[C@]5(C)[C@@H](C7=CC(=O)OC7)CC[C@]65O)C4)O[C@@H]3C)O[C@@H]2C)C[C@H](O)[C@@H]1O [DIGOXIN] | 6.66 | 0.97 µmol/kg | 127% | Toxic | 3.2 | 0.41 µmol/kg
15 | CC(C)(N)CO/N=C1/CC[C@@]2(C)[C@H](C1)C(=O)C[C@@H]1[C@@H]2CC[C@]2(C)C(=O)CC[C@@H]12 | 4.55 | – | – | – | – | –
16 | C[C@H](N)CO/N=C1/CC[C@@]2(C)[C@H](C1)C(=O)C[C@@H]1[C@@H]2CC[C@]2(C)C(=O)CC[C@@H]12 | 6.43 | – | – | – | – | –
17 | CN1CC[C@@H](O/N=C2/CC[C@@]3(C)[C@H](C2)C(=O)C[C@@H]2[C@@H]3CC[C@]3(C)C(=O)CC[C@@H]23)C1 | 5.89 | – | – | – | – | –
18 | CC12CCC3C(CC(=O)C4CC(=NOCCN)CCC43C)C1CCC2=O (configuration not stated) | 6.96 | 5.74 µmol/kg | 182% | – | 25.6 | 1.82 µmol/kg
19 | C[C@]12CC/C(=N\OC[C@@H]3CCCN3)C[C@@H]1C(=O)C[C@@H]1[C@@H]2CC[C@]2(C)C(=O)CC[C@@H]12 | 4.96 | – | – | – | – | –
20 | C[C@]12CC/C(=N/OCCN)C[C@@H]1C(=O)C[C@@H]1[C@@H]2CC[C@]2(C)C(=O)CC[C@@H]12 | 6.20 | 12.1 µmol/kg | 235% | – | 22.5 | 3.36 µmol/kg
21 | C[C@]12CC/C(=N/O[C@@H]3CCNC3)C[C@@H]1C(=O)C[C@@H]1[C@@H]2CC[C@]2(C)C(=O)CC[C@@H]12 | 6.60 | 43.5 µmol/kg | 114% | Non-toxic | >3.6 | 27.7 µmol/kg
22 | CNCCCO/N=C1/CC[C@@]2(C)[C@H](C1)C(=O)C[C@@H]1[C@@H]2CC[C@]2(C)C(=O)CC[C@@H]12 | 6.64 | – | – | – | – | –
23 | C[C@@H](N)CO/N=C1/CC[C@@]2(C)[C@H](C1)C(=O)C[C@@H]1[C@@H]2CC[C@]2(C)C(=O)CC[C@@H]12 | 6.42 | – | – | – | – | –
24 | C[C@]12CC/C(=N\OC3CCCNC3)C[C@@H]1C(=O)C[C@@H]1[C@@H]2CC[C@]2(C)C(=O)CC[C@@H]12 (mixture of isomers) | 4.48 | – | – | – | – | –
25 | C[C@]12CC/C(=N\O[C@@H]3CCNC3)C[C@@H]1C(=O)C[C@@H]1[C@@H]2CC[C@]2(C)C(=O)CC[C@@H]12 | 7.80 | 2.65 µmol/kg | 186% | Toxic | 8 | 0.75 µmol/kg
26 | CCCON=C1CC[C@@]2(C)[C@H](C1)C(=O)C[C@@H]1[C@@H]2CC[C@]2(C)C(=O)CC[C@@H]12 | 7.25 | 6.79 µmol/kg | 260% | Toxic | 20.8 | 1.03 µmol/kg
27 | C[C@]12CC/C(=N\OC3CCNCC3)C[C@@H]1C(=O)C[C@@H]1[C@@H]2CC[C@]2(C)C(=O)CC[C@@H]12 | 5.96 | – | – | – | – | –
